The source of these data is US20240360145A1, “PYRIMIDINE-2,4-DIAMINE DERIVATIVES AS WELL AS PREPARATION METHOD THEREFOR AND USE THEREOF” (LISEN THERAPEUTICS, INC., priority 2022, published 2024).

Usually pIC50 stands for the IC50 on a negative log10 scale, so that one unit is a factor of ten.

One data set has as its system PE052 primary cells. Kind of data set: Cell viability IC50 (CCK-8), primary cells PE052 from small cell lung cancer pleural effusion. It counts as cell-based. The conditions noted are these: PE052, CCK-8. How it is done:
(§1) (1) The pleural effusion was poured into a 15 mL or 50 mL of sterilized centrifuge tube for centrifugation. Centrifugation conditions: 800 to 1000 rpm, 5 min.
(§2) (2) The precipitate was resuspended and washed for 2 to 3 times with PBS.
(§3) (3) The cell precipitate was resuspended with complete culture medium (α-MEM medium containing 10% fetal bovine serum and 2% penicillin-streptomycin), and the flocculent matter in the pleural effusion was removed using a sterilized cell sieve.
(§4) (4) The red blood cells in the pleural effusion were removed with lymphocyte separation fluid, and the tumor cells and lymphocyte components were collected. The number of tumor cells was observed under a microscope, and the cells were inoculated.
(§5) (5) After 24 hours, the supernatant was discarded, and fresh culture medium was added for further culture.
(§6) (6) The cell growth status was observed, and it was determined based on the cell status whether the medium was required to be continuously changed to remove blood cells. When the cells grew to a density of 80% to 90%, the cells were preserved.
(§7) (1) Primary cells from lung cancer pleural effusion within 5 generations were cultured to the logarithmic growth phase. […] After centrifugation at room temperature, the supernatant was discarded, and the cell precipitate was resuspended with fresh complete culture medium. After counting, the cells were placed at room temperature for later use. The cells were inoculated into a 384-well plate at a density of 2000 cells/well with a volume of 40 μl/well. The wells at the outermost circle of the plate were not inoculated with cells, and instead, added with sterile water to reduce evaporation of the culture medium.
(§8) (2) After overnight culture of the cells, the medium was discarded, and a fresh medium containing different concentrations of compounds was added at 200 μl/well. The dilution method of the compound was as follows: first the compound with the highest concentration of 10 μM was prepared, and then the compound was diluted for 3 times in sequence. […] At the same time, a blank control group was set up, in which only an equal volume of culture medium was added without adding cells. Five replicate wells were set up for each group. The cells were placed in the incubator for further culture.
(§9) (3) After 72 hours, 8 μl of CCK-8 solution, which was double-diluted with 10 mM PBS, was added to each well, and the cells were shaken and placed in an incubator at 37° C. for further culture for 2 hours.
(§10) (4) The light absorbance value at 450 nm was read using a microplate reader, and the IC50 was calculated according to the absorbance value. The calculation method was the same as above.
(§11) (1) Sample information: PE039, PE052, and PE062 were all primary cell samples from pleural effusion of patients with small cell lung cancer, and LT015 was a primary cell sample from bronchoscopic biopsy of a patient with small cell lung cancer.
(§12) (2) CCK-8 detection was used to detect the IC50 values of different medicaments (compounds).

A further data set concerns NCI-H1792 cells. Kind of data set: Cell viability IC50 (MTT), AMG510-resistant NCI-H1792 cells. It counts as cell-based. The conditions noted are these: Homo sapiens, NCI-H1792 cells (KRAS G12C). How it is done:
Non-small cell lung cancer cell lines NCI-H1975, NCI-H1650, and NCI-H1792 were cultured in RPMI-1640 medium containing 10% fetal bovine serum and 1% penicillin-streptomycin. 1% sodium pyruvate was additionally added when culturing NCI-H1975 cells. All the cells were cultured in a constant temperature incubator containing 5% CO2 at 37° C.
(1) The cells were cultured to the logarithmic growth phase. When the confluence reached about 90%, the cells were digested with 0.25% trypsin, and complete medium was added to collect the cells. After centrifugation at room temperature, the supernatant was discarded, and the cell precipitate was resuspended with fresh complete medium. […]
(5) The medium was carefully aspirated off, 100 μl of DMSO was added to dissolve the precipitate formed by the reaction with MTT, shaking and mixing to mix the blue-violet crystals well, and the light absorbance value at 492 nm was read with a microplate reader.
(6) IC50 of the compounds for different cells was calculated based on the light absorption value of each group. Specifically, the absorbance value under treatment with different concentrations of compounds was first subtracted from the absorbance value of the blank well, and then the absorbance value of the 0 μM group was taken as 100% to calculate the cell survival rate after treatment with different concentrations of compounds. […]

A further data set deals with PE062 primary cells. Kind of data set: Cell viability IC50 (CCK-8), primary cells PE062 from small cell lung cancer pleural effusion. It counts as cell-based. The settings on record: PE062, CCK-8. How it is done:
as §1, §2, §3, §4, §5, §6, §7, §8, §9, §10, §11, §12

Another data set relates to NCI-H1688 cells. The experiment in a line: Cell viability IC50 (CCK-8), small cell lung cancer cell line H1688. It counts as cell-based. The conditions noted are these: H1688, CCK-8. As to the method:
(§13) Small cell lung cancer cell lines DMS114, NCI-H1688, NCI-H82, NCI-H146, and NCI-H446 cells were cultured in RPMI-1640 medium containing 10% fetal bovine serum and 1% penicillin-streptomycin. All the cells were cultured in a constant temperature incubator containing 5% CO2 at 37° C.
(§14) Small cell lung cancer is a highly heterogeneous malignant tumor, and its clinical treatment is mainly based on traditional chemotherapy (mainly platinum medicaments and etoposide). In order to study the anti-tumor activity of the compounds of the present disclosure in small cell lung cancer, the CCK-8 method was used to investigate the cell viability IC50 of compound 8 for five small cell lung cancer cell lines.

For a further data set, the system named is PE039 primary cells. Kind of data set: Cell viability IC50 (CCK-8), primary cells PE039 from small cell lung cancer pleural effusion. It counts as cell-based. The conditions noted are these: PE039, CCK-8. How it is done:
as §1, §2, §3, §4, §5, §6, §7, §8, §9
(4) The light absorbance value at 450 nm was read using a microplate reader, and the IC50 was calculated according to the absorbance value. The calculation method was the same as above. […]

The next data set deals with DMS114 cells. Kind of data set: Cell viability IC50 (CCK-8), small cell lung cancer cell line DMS114. It counts as cell-based. The conditions noted are these: DMS114, CCK-8. As to the method: as §13, §14
The subject of a further data set is PE043 primary cells. The experiment in a line: Cell viability IC50 (CCK-8), primary cells PE043 from lung adenocarcinoma pleural effusion resistant to EGFR-TKI. The settings on record: read-out: cell viability IC50; PE043, CCK-8.
For a further data set, the system named is NCI-H446 cells. Kind of data set: Cell viability IC50 (CCK-8), small cell lung cancer cell line H446. It counts as cell-based. The settings on record: H446, CCK-8. As to the method:
as §13, §14

For a further data set, the system named is NCI-H146 cells. Kind of data set: Cell viability IC50 (CCK-8), small cell lung cancer cell line H146. It counts as cell-based. The settings on record: H146, CCK-8. How it is done: as §13, §14
A further data set relates to NCI-H82 cells. The experiment in a line: Cell viability IC50 (CCK-8), small cell lung cancer cell line H82. It counts as cell-based. The conditions noted are these: H82, CCK-8. How it is done:
as §13, §14

For another data set, the system named is LT015 primary cells. The experiment in a line: Cell viability IC50 (CCK-8), primary cells LT015 from small cell lung cancer bronchoscopic biopsy. It counts as cell-based. The settings on record: LT015, CCK-8. As to the method:
(1) The tissue blocks obtained from the tumor patients were transferred from the preservation solution to the pre-cooled HBSS buffer containing antibiotics, and the tissue blocks were washed for three times with the pre-cooled HBSS buffer.
(2) Tissue was sheared on ice with sterile surgical instruments until no obvious tissue blocks are visible to the naked eye, the tissue fluid was collected into a 15 ml centrifuge tube, and this process takes about 5 to 10 minutes.
(3) Digestive enzymes (collagenase I, collagenase IV and neutral protease being mixed in a ratio of 1:1:1, a concentration of stock solution was 10 mg/ml, diluted with PBS buffer or HBSS buffer, and the use concentration was 1 mg/ml) were added to the centrifuge tube, and after mixing well by pipetting, the centrifuge tube was placed in a 37° C. constant temperature incubator for 1 to 2 hours.
(4) High-glucose medium was added to the centrifuge tube to stop digestion. After mixing well, the cell precipitate was collected by centrifugation, and resuspended with MBM medium (Advanced DMEM-F12+20 ng/ml bFGF+50 ng/ml EGF+1% ITS-X+2% B27+10 μMY-27632+1% PS). The cell suspension was placed in a Matrigel-coated 24-well plate and cultured for 5 to 7 days. When the cell density in the well plate reaches 80-90%, the cells were sub-cultured into a 6 cm cell culture dish, and when they grew to a density of 80% to 90%, the cells were cryopreserved for preservation.
(1) Primary cells from lung cancer pleural effusion within 5 generations were cultured to the logarithmic growth phase. When the confluence reached about 90%, the cells were digested with 0.25% trypsin, and complete culture medium was added to collect the cells. After centrifugation at room temperature, the supernatant was discarded, and the cell precipitate was resuspended with fresh complete culture medium. After counting, the cells were placed at room temperature for later use. The cells were inoculated into a 384-well plate at a density of 2000 cells/well with a volume of 40 μl/well. The wells at the outermost circle of the plate were not inoculated with cells, and instead, added with sterile water to reduce evaporation of the culture medium.
as §8, §9, §10, §11, §12

The subject of data set [1] is small cell lung cancer cell line H446 cells. Kind of data set: In vivo antitumor effect in mice bearing small cell lung cancer cell line H446 cells (CDX model).
Method: H446 cells in the logarithmic growth phase were suspended in PBS solution, and then inoculated subcutaneously in the right forelimb of nude mice. The cell density was about 2×10^8 cells/mL, and each mouse was inoculated with 0.1 mL of the cell suspension, for a total of 80 mice. When the subcutaneous tumor grew to range from 50 mm^3 to 100 mm^3, 40 tumor-bearing mice were randomly divided into groups and numbered, and drug administration began.
(1) Vehicle blank control group: 5% DMSO+20% PEG 300+75% saline (normal saline);
The cycle repeated twice, and no medication for the final 6 days.
All tumor-bearing mice were killed after 20 days.

pIC50: −log10 of the molar value.

`C=CC(=O)N1CCN(c2nc(=O)n(-c3c(C)ccnc3C(C)C)c3nc(-c4c(O)cccc4F)c(F)cc23)[C@@H](C)C1` [AMG510]: the pIC50 with PE052 primary cells, in the data set on NCI-H1792 cells and in the data set with PE062 primary cells was less than 5.00 throughout.
`N.N.[Cl][Pt][Cl]` [Cisplatin]: the pIC50 was 4.85 with NCI-H1688 cells; 4.95 in the data set on PE039 primary cells; 6.05 in the data set on PE052 primary cells; 5.67 in the data set on DMS114 cells; 4.51 with PE043 primary cells; 6.25 in the data set on NCI-H446 cells. Also, the pIC50 was 5.41 with NCI-H146 cells, 5.49 in the data set with PE062 primary cells, 5.75 in the data set with NCI-H82 cells and 5.26 in the data set with LT015 primary cells.
Take `CN1CCN(Cc2ccc(Nc3ncc(Cl)c(Nc4ccccc4S(=O)(=O)N(C)C)n3)cc2)CC1` [TP-0903]: the pIC50 is 6.27 with NCI-H1688 cells (NCI-H1688); 6.87 in the data set with PE039 primary cells; 6.68 in the data set with PE052 primary cells; 7.02 in the data set on DMS114 cells (Homo sapiens, DMS-114); 6.56 in the data set on NCI-H446 cells (Homo sapiens, NCI-H446); 5.81 in the data set on NCI-H146 cells (Homo sapiens, NCI-H146). For the same compound, the pIC50 was 8.29 with PE062 primary cells; 7.46 in the data set with NCI-H82 cells (Homo sapiens, NCI-H82); 7.03 with LT015 primary cells. In addition, the “inhibitory effect on tumor volume growth compared with blank control (FIG. 1)” value in data set [1] (H446 CDX nude mice, intraperitoneal injection, 20 days) is on record as “no significant inhibitory effect on tumor volume growth”. The animals survived in data set [1] (H446 CDX nude mice, intraperitoneal injection, 20 days, compound 8 and TP-0903 15 mg/kg once a day for 13 days, Cisplatin 2.5 mg/kg + Etoposide 4 mg/kg cycles) is 11 of 12. Also, the “body weight changes of nude mice (FIG. 2)” value in data set [1] (during the drug administration period, recovered rapidly after drug withdrawal) is reported as “no significant decrease in body weight”.
